Where “and” joins values, the source holds several entries; their conditions need not be identical. Equal values may be shown once.
What was measured:
CYP 3A4 = CYP 3A4 (Homo sapiens, UniProt P08684); assay: CYP inhibition 3A4 (BFC substrate); assay type: in vitro ADME; settings: 10 μM
From the text: (§1) Table 3 In vitro physicochemical, stability and metabolism data. | column: Value

[1] = Whole blood C16 determination after 7-day dosing via medicated gels; assay type: in vivo, mouse; settings: for Blood concentration of C16: Average±SD
Experimental: On the evening of day 6, blood was collected via the tail vein for the 0, 100 and 300 mg/kg C16 cohorts for determination of the whole blood C16 level. On the morning of day 7, mice of the 0, 100 and 300 mg/kg C16 cohorts were anesthetized by IP injection with 250 mg/kg of Avertin (20 mL/kg, preparation see Section E in S1 File). Blood for C16 determination and hematological and biochemical analysis was collected via cardiac exsanguination (600 μL to 1 mL). Detailed analysis protocols are described below. Afterward, animals were sacrificed by cervical dislocation.
Blood samples (25 μL) were collected via the tail vein or cardiac puncture (last time point). Blood was pipetted into a tube with 25 μL heparinized water (1 μL of sodium heparin (1000 units/mL) + 24 μL water) within 30 seconds of collection. The sample was pipetted up and down five times, immediately frozen on dry ice, and stored at -60°C to -80°C until analysis.
E.C. Whole blood C16 levels
Table AA. Individual blood concentration (ng/mL) for C16 in cohorts on medicated gel .
Cohort and animal Evening Morning
BLOQ: below the limit of quantitation (0.5 ng/mL). Samples that were below the limit of quantification were not used in the calculation of
Table BB. […]

ICR mice [2] = assay: Single-dose PO MTD study; assay type: in vivo; settings: for Necropsy: gross findings: 72 h post dosing; for Autonomic / Behavioral / Neurologic: first 60 min; for Weigt increase (%): over 72 h, average±SD
Experimental: (§2) Male ICR mice (20–26 g), were obtained from BioLASCO Taiwan. Animals were kept in conventional cages with wood chip bedding. Space allocation for 3–5 animals was 30 x 19 x 13 cm. All animals were healthy at the start of the trial and maintained in a well-controlled temperature (20–24°C) and humidity (30%-70%) environment with 12 h light/dark cycles. Free access to a standard lab diet [MFG (Oriental Yeast Co., Ltd., Japan)] and autoclaved tap water were granted.
(§3) A single PO and IP dose progression test was conducted in which animals were dosed at a minimum of 72- or 24-h intervals, respectively. C16 (vehicle: 10% Solutol HS-15 / 90% PEG 600) was administered by oral gavage at 10 mL/kg to randomly assigned groups of 2 male and 2 female mice, or by IP injection at 5 mL/kg to randomly assigned groups of 5 male mice. Animals received an initial dose of 10 mg/kg. If 50% of the animals survived for 72 h (PO) or 30 min (IP), the dose for the next cohort was increased. If one or more animals died, the dose for the next cohort was decreased. The next dose level was determined by the decision scheme in Fig 2.
(§4) Body weights were recorded before dosing and at the 72- (PO) or 24-h (IP) time point. Gross necropsy was performed in all animals without tissue collection.
dose was increased or decreased in each subsequent test round until the MTD was discovered. Gross necropsy was
performed in all animals without tissue collection.

ICR mice [3] = assay: Single-dose IP MTD study; assay type: in vivo; settings: for Necropsy: gross findings: 24 h post dosing; for Weigt decrease (%): over 24 h
Experimental: as §2, §3, §4
C16 was administered IP at an initial dose of 10 mg/kg to a group of 5 ICR derived male mice weighing 22±2 g. The animals were then observed for presence of acute toxic symptoms and autonomic effects during the first 30 min and after 1 h, 2 h, 6 h and 24 h (Table S-Table U). The next dose level was determined based on whether more than 50% animals died within 30 min after dosing. Gross necropsy was performed in all animals without tissue collection .
Table S. Body weights, evolution over 24 h, IP MTD study.
Compound Dose Animal Body weight (g)
Table T. Food consumption over 24 h, IP MTD study.
Compound Dose Animal Food consumption (g)

Aqueous solubility = assay type: physicochemical; settings: test concentration 200 μM
From the text: as §1

Sequence of CYP 3A4 (P08684 whole entry): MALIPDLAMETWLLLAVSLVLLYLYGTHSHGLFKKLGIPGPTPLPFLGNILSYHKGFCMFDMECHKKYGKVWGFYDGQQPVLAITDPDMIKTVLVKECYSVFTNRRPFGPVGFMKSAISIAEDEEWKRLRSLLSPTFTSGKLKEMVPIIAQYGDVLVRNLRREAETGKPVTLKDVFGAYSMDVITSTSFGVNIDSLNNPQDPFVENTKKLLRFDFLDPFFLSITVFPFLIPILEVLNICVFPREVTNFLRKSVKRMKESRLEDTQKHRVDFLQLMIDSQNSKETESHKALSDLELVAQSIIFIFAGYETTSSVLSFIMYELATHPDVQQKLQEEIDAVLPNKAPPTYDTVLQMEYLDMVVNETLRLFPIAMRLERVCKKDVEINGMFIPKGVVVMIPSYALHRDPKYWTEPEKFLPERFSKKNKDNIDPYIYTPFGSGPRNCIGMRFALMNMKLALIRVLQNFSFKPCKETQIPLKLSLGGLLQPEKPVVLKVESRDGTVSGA

SMILES: COc1cc(C(=O)/C=C/c2ccc(F)cc2)cc(OC)c1OC [C16, 4-fluoro-3’,4’,5’-trimethoxychalcone]
- CYP inhibition 3A4 (BFC substrate) (CYP 3A4): 27 % inhibition of control
- Blood concentration of C16 ([1]; 100 mg/kg cohort on medicated gel, Evening (day 6)): 8.48 ± 2.28 ng/mL
- Individual blood concentration of C16 ([1]; 100 mg/kg cohort on medicated gel, Evening, animals 2-1 to 2-4): 8.39 ng/mL and 5.39 ng/mL and 9.33 ng/mL and 10.8 ng/mL
- Blood concentration of C16 ([1]; 100 mg/kg cohort on medicated gel, Morning (day 7)): 31.2 ± 26.0 ng/mL
- Individual blood concentration of C16 ([1]; 100 mg/kg cohort on medicated gel, Morning, animals 2-1 to 2-4): 11.5 ng/mL and 6.14 ng/mL and 56.2 ng/mL and 50.8 ng/mL
- Blood concentration of C16 ([1]; 300 mg/kg cohort on medicated gel, Evening (day 6)): 7.63 ± 5.07 ng/mL
- Individual blood concentration of C16 ([1]; 300 mg/kg cohort on medicated gel, Evening, animals 3-1, 3-3, 3-4): 3.51 ng/mL and 13.3 ng/mL and 6.09 ng/mL
- Blood concentration of C16 ([1]; 300 mg/kg cohort on medicated gel, Morning (day 7)): 38.1 ± 27.8 ng/mL
- Individual blood concentration of C16 ([1]; 300 mg/kg cohort on medicated gel, Morning, animals 3-1 to 3-4): 30.1 ng/mL and 21.6 ng/mL and 79.3 ng/mL and 21.3 ng/mL
- Whole blood C16 concentrations versus projected EC50 ([1]; medicated gel, day 6 evening and day 7 morning): above its projected EC50
- tolerated dose (ICR mice [2]; ICR mice, PO oral gavage, single dose): 10 to 300 mg/kg
- Deaths (ICR mice [2]; PO 10 mg/kg, F): 0/2
- Necropsy: gross findings (ICR mice [2]; PO 10 mg/kg, F): none
- Autonomic (ICR mice [2]; PO 10 mg/kg, F): none
- Behavioral (ICR mice [2]; PO 10 mg/kg, F): none
- Neurologic (ICR mice [2]; PO 10 mg/kg, F): none
- Weigt increase (%) (ICR mice [2]; PO 10 mg/kg, F): 2±3%
- Deaths (ICR mice [2]; PO 10 mg/kg, M): 0/2
- Necropsy: gross findings (ICR mice [2]; PO 10 mg/kg, M): none
- Autonomic (ICR mice [2]; PO 10 mg/kg, M): none
- Behavioral (ICR mice [2]; PO 10 mg/kg, M): none
- Neurologic (ICR mice [2]; PO 10 mg/kg, M): none
- Weigt increase (%) (ICR mice [2]; PO 10 mg/kg, M): 25±3%
- Deaths (ICR mice [2]; PO 30 mg/kg, F): 0/2
- Necropsy: gross findings (ICR mice [2]; PO 30 mg/kg, F): none
- Autonomic (ICR mice [2]; PO 30 mg/kg, F): none
- Behavioral (ICR mice [2]; PO 30 mg/kg, F): none
- Neurologic (ICR mice [2]; PO 30 mg/kg, F): none
- Weigt increase (%) (ICR mice [2]; PO 30 mg/kg, F): 6±3%
- Deaths (ICR mice [2]; PO 30 mg/kg, M): 0/2
- Necropsy: gross findings (ICR mice [2]; PO 30 mg/kg, M): none
- Autonomic (ICR mice [2]; PO 30 mg/kg, M): none
- Behavioral (ICR mice [2]; PO 30 mg/kg, M): none
- Neurologic (ICR mice [2]; PO 30 mg/kg, M): none
- Weigt increase (%) (ICR mice [2]; PO 30 mg/kg, M): 18±3%
- Deaths (ICR mice [2]; PO 100 mg/kg, F): 0/2
- Necropsy: gross findings (ICR mice [2]; PO 100 mg/kg, F): none
- Autonomic (ICR mice [2]; PO 100 mg/kg, F): none
- Behavioral (ICR mice [2]; PO 100 mg/kg, F): Yes: B,C
- Neurologic (ICR mice [2]; PO 100 mg/kg, F): none
- Weigt increase (%) (ICR mice [2]; PO 100 mg/kg, F): 8±1%
- Deaths (ICR mice [2]; PO 100 mg/kg, M): 0/2
- Necropsy: gross findings (ICR mice [2]; PO 100 mg/kg, M): none
- Autonomic (ICR mice [2]; PO 100 mg/kg, M): none
- Behavioral (ICR mice [2]; PO 100 mg/kg, M): Yes: A,C
- Neurologic (ICR mice [2]; PO 100 mg/kg, M): none
- Weigt increase (%) (ICR mice [2]; PO 100 mg/kg, M): 25±1%
- Deaths (ICR mice [2]; PO 300 mg/kg, F): 0/2
- Necropsy: gross findings (ICR mice [2]; PO 300 mg/kg, F): none
- Autonomic (ICR mice [2]; PO 300 mg/kg, F): none
- Behavioral (ICR mice [2]; PO 300 mg/kg, F): Yes: A
- Neurologic (ICR mice [2]; PO 300 mg/kg, F): none
- Weigt increase (%) (ICR mice [2]; PO 300 mg/kg, F): 7±3%
- Deaths (ICR mice [2]; PO 300 mg/kg, M): 0/2
- Necropsy: gross findings (ICR mice [2]; PO 300 mg/kg, M): none
- Autonomic (ICR mice [2]; PO 300 mg/kg, M): none
- Behavioral (ICR mice [2]; PO 300 mg/kg, M): Yes: A
- Neurologic (ICR mice [2]; PO 300 mg/kg, M): none
- Weigt increase (%) (ICR mice [2]; PO 300 mg/kg, M): 17±0%
- maximum tolerated single dose (ICR mice [2]; mouse, oral gavage): > 300 mg/kg
- Deaths (ICR mice [3]; IP 10 mg/kg): 0/5
- Necropsy: gross findings (ICR mice [3]; IP 10 mg/kg): none
- Autonomic: Hunch back (ICR mice [3]; IP 10 mg/kg, first 30 min): 3/5
- Autonomic: Low body temperature (ICR mice [3]; IP 10 mg/kg, first 30 min): 0/5
- Behavioral: Irritability: vocalization (ICR mice [3]; IP 10 mg/kg, first 30 min): 0/5
- Behavioral: Pinna (ICR mice [3]; IP 10 mg/kg, first 30 min): 0/5
- Neurologic: Low limb post (ICR mice [3]; IP 10 mg/kg, first 30 min): 0/5
- Neurologic: Tremor: twitches (ICR mice [3]; IP 10 mg/kg, first 30 min): 2/5
- Weigt decrease (%) (ICR mice [3]; IP 10 mg/kg): 2.4%
- Deaths (ICR mice [3]; IP 30 mg/kg): 0/5
- Necropsy: gross findings (ICR mice [3]; IP 30 mg/kg): none
- Autonomic: Hunch back (ICR mice [3]; IP 30 mg/kg, first 30 min): 5/5
- Autonomic: Low body temperature (ICR mice [3]; IP 30 mg/kg, first 30 min): 0/5
- Neurologic: Tremor: twitches (ICR mice [3]; IP 30 mg/kg, first 30 min): 2/5
- Weigt decrease (%) (ICR mice [3]; IP 30 mg/kg): 4.8%
- Deaths (ICR mice [3]; IP 50 mg/kg): 0/5
- Necropsy: gross findings (ICR mice [3]; IP 50 mg/kg): none
- Autonomic: Hunch back (ICR mice [3]; IP 50 mg/kg, first 30 min): 5/5
- Neurologic: Tremor: twitches (ICR mice [3]; IP 50 mg/kg, first 30 min): 3/5
- Weigt decrease (%) (ICR mice [3]; IP 50 mg/kg): 8.7%
- tolerated dose, single-dose IP administration (ICR mice [3]; male, ICR, mouse, in vivo, ip, 24 h): up to 50 mg/kg
- Aqueous solubility (Aqueous solubility; PBS, pH 7.4): 7.9 µM
- Aqueous solubility (Aqueous solubility; simulated gastric fluid): 9.1 µM
- Aqueous solubility (Aqueous solubility; simulated intestinal fluid): 2.4 µM
